Target: T1, human CH24H (Homo sapiens, UniProt Q9Y6A2)
T1 construct: Using Full-Length Mammalian Gene Collection No. 4819975 (Invitrogen) as a template; made in house; host or cells: FreeStyle 293-F cells (transient transfection); cell lysate supernatant, not purified
Experiment: Measurement of CH24H inhibitory activity (24-HC produced from [14C] cholesterol by human CH24H lysate)
Format: biochemical
Conditions: test compound 1 μM, [14C] cholesterol 15 μM, 37° C., 5 hr, read-out: Inhibitory Rate (%) in 1 μM
Procedure: The expression of human CH24H was performed using FreeStyle 293 Expression System (Invitrogen). According to the manual attached to FreeStyle 293 Expression System and using the plasmid DNA for human CH24H expression (pcDNA3.1(+)/hCH24H) constructed in Experimental Example 1, a transient expression using FreeStyle 293-F cell was performed. After transfection, the cells were cultured at 37° C., 8% CO2 with shaking at 125 rpm for 2 days. The cells were collected by centrifugation, and suspended in a suspension buffer (100 mM potassium phosphate (pH 7.4), 0.1 mM EDTA, 1 mM DTT, 20% Glycerol). The suspended product was disrupted by a polytron homogenizer (manufactured by Kinematica), and centrifuged at 9000×g for 10 min, and the supernatant was collected. The collected supernatant was cryopreserved (−80° C.) as a human CH24H lysate standard product.
For the measurement of CH24H inhibitory activity, using the human CH24H lysate prepared in Experimental Example 2, the amount of 24-HC produced from cholesterol by catalytic activity of CH24H was measured in the presence of a test compound, and compared with that measured in the absence of the test compound. That is, a test compound solution at various concentrations was mixed with a reaction buffer (50 mM potassium phosphate containing 0.1% BSA and Complete, EDTA-free, pH 7.4) and human CH24H lysate. Then, [^14C] cholesterol (53 mCi/mmol specific activity, 15 μM) was added, and CH24H reaction was performed at 37° C. for 5 hr. After completion of the reaction, a quenching solution consisting of chloroform/methanol/distilled water (2:2:1 v/v) was added, and the resulting 24-HC was extracted by shaking. The extract was applied to silica gel thin layer chromatography (ethyl acetate:toluene=4:6), and the obtained ^14C-24HC fraction was measured with BAS2500 (Fujifilm Corporation).
The inhibitory rate (%) was calculated from the ratio of radioactivity in the presence of a test compound relative to the radioactivity in the absence of the test compound.

T1 sequence (Q9Y6A2 whole entry): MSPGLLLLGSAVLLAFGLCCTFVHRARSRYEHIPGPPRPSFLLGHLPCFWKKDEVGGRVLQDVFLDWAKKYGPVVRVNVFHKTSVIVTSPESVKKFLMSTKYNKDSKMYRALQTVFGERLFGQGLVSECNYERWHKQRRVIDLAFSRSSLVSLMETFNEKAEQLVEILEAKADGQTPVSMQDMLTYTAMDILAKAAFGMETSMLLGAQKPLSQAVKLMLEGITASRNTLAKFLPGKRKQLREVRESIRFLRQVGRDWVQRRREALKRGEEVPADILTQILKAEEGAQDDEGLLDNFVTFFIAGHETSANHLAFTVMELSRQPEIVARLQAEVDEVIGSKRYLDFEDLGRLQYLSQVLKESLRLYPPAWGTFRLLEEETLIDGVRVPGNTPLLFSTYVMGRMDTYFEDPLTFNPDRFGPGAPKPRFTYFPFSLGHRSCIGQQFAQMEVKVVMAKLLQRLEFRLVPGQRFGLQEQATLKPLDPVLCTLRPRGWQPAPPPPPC

Q: Which inhibition at 1 µM does the source give for `O=C(c1cnc2c(-c3cnco3)cc(C(F)F)cn12)N1C[C@@H]2C[C@H]1CO2` [Example 171, (6-(difluoromethyl)-8-(1,3-oxazol-5-yl)imidazo[1,2-a]pyridin-3-yl)((1S,4S)-2-oxa-5-azabicyclo[2.2.1]hept-5-yl)methanone] here?
A: 91%

Q: `O=C(c1cnc2c(-c3cnco3)cc(C(F)(F)F)cn12)N1CC[C@H](O)C1` [Example 87, ((3S)-3-hydroxypyrrolidin-1-yl)(8-(1,3-oxazol-5-yl)-6-(trifluoromethyl)imidazo[1,2-a]pyridin-3-yl)methanone] was tested. Which inhibition at 1 µM did it give?
A: 94%

Q: Which inhibition at 1 µM does the source give for `O=C(Nc1ccccc1)c1cnc2c(-c3cnco3)cc(C(F)(F)F)cn12` [Example 74, 8-(1,3-oxazol-5-yl)-N-phenyl-6-(trifluoromethyl)imidazo[1,2-a]pyridine-3-carboxamide] here?
A: 96%

Q: With `O=C(c1cnc2c(-c3cnco3)cc(C(F)(F)F)cn12)N1CC(F)(F)C1` [Example 21, (3,3-difluoroazetidin-1-yl)(8-(1,3-oxazol-5-yl)-6-(trifluoromethyl)imidazo[1,2-a]pyridin-3-yl)methanone] as the compound, how does the inhibition at 1 µM read?
A: 99%

Q: For `CC(=O)c1cc(-c2cnco2)c2ncc(C(=O)N3C[C@@H]4C[C@H]3CO4)n2c1` [Example 155, 1-(3-((1S,4S)-2-oxa-5-azabicyclo[2.2.1]hept-5-ylcarbonyl)-8-(1,3-oxazol-5-yl)imidazo[1,2-a]pyridin-6-yl)ethanone], which inhibition at 1 µM is on record?
A: 84%

Q: Which inhibition at 1 µM does the source give for `O=C(c1cnc2c(-n3cncn3)cc(C(F)(F)F)cn12)N1C[C@@H]2C[C@H]1CO2` [Example 128, (1S,4S)-2-oxa-5-azabicyclo[2.2.1]hept-5-yl(8-(1H-1,2,4-triazol-1-yl)-6-(trifluoromethyl)imidazo[1,2-a]pyridin-3-yl)methanone] here?
A: 86%

Q: `O=C(c1cnc2c(-c3cnco3)cc(C(F)(F)F)cn12)N1CC(F)C1` [Example 177, (3-fluoroazetidin-1-yl)(8-(1,3-oxazol-5-yl)-6-(trifluoromethyl)imidazo[1,2-a]pyridin-3-yl)methanone] was tested. Which inhibition at 1 µM did it give?
A: 86%

Q: How did the inhibition at 1 µM turn out when `O=C(c1cnc2c(-c3cnco3)cc(C(F)(F)F)cn12)N1CC[C@H](OCC(F)F)C1` [Example 90, ((3S)-3-(2,2-difluoroethoxy)pyrrolidin-1-yl)(8-(1,3-oxazol-5-yl)-6-(trifluoromethyl)imidazo[1,2-a]pyridin-3-yl)methanone] was run?
A: 91%

Q: For `CCOC(=O)c1cnc2c(-c3cnco3)cc(C(F)(F)F)cn12` [Example 1, ethyl 8-(1,3-oxazol-5-yl)-6-(trifluoromethyl)imidazo[1,2-a]pyridine-3-carboxylate], which inhibition at 1 µM is on record?
A: 86%

Q: For `CN(C(=O)c1cnc2c(-c3cnco3)cc(C(F)(F)F)cn12)C1CCOCC1` [Example 47, N-methyl-8-(1,3-oxazol-5-yl)-N-(tetrahydro-2H-pyran-4-yl)-6-(trifluoromethyl)imidazo[1,2-a]pyridine-3-carboxamide], which inhibition at 1 µM is on record?
A: 92%

Q: With `O=C(c1cnc2c(-c3cnco3)cc(C3CC3)cn12)N1C2CCC1COC2` [Example 143, (6-cyclopropyl-8-(1,3-oxazol-5-yl)imidazo[1,2-a]pyridin-3-yl)(3-oxa-8-azabicyclo[3.2.1]oct-8-yl)methanone] as the compound, how does the inhibition at 1 µM read?
A: 91%

Q: `O=C(c1cnc2c(-c3cnco3)cc(-c3cnco3)cn12)N1C[C@@H]2C[C@H]1CO2` [Example 93, (6,8-di(1,3-oxazol-5-yl)imidazo[1,2-a]pyridin-3-yl)((1S,4S)-2-oxa-5-azabicyclo[2.2.1]hept-5-yl)methanone] was tested. Which inhibition at 1 µM did it give?
A: 68%

Q: How did the inhibition at 1 µM turn out when `O=C(c1nnc2c(-c3cnco3)cc(C(F)(F)F)cn12)N1C[C@@H]2C[C@H]1CO2` [Example 58, (1S,4S)-2-oxa-5-azabicyclo[2.2.1]hept-5-yl(8-(1,3-oxazol-5-yl)-6-(trifluoromethyl)[1,2,4]triazolo[4,3-a]pyridin-3-yl)methanone] was run?
A: 80%

Q: With `O=C(c1cnc2c(-c3cnco3)cc(Cl)cn12)N1C[C@@H]2C[C@H]1CO2` [Example 92, (6-chloro-8-(1,3-oxazole-5-yl)imidazo[1,2-a]pyridin-3-yl)((1S,4S)-2-oxa-5-azabicyclo[2.2.1]hept-5-yl)methanone] as the compound, how does the inhibition at 1 µM read?
A: 86%
